Source: the supplement of paper PMC6045584
± gives the standard deviation of the averaged measurements.

Legend:
[1] = compound: C#Cc1cccc(Nc2ncnc3cc(OCCOC)c(OCCOC)cc23)c1 [ERLOTINIB]; experiment: surviving fraction relative to DMSO-only wells; higher = less growth inhibition; conditions: exposure time: 5 days
How it was run: (§1)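 For each tumour cell line, log-phase cells were put into 384-well plates at 250–500 cells per well, then after 24 hours exposed continuously for five days to inhibitors at 0.5, 1, 5, 10, 50, 100, 500 and 1000 nM. Viability was assessed by CellTiter-Glo luminescence, with surviving fraction expressed relative to the median of DMSO-only wells. Lines were screened three times and retained only if replicate Pearson r exceeded 0.7 and median Z' exceeded 0.3.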

[2] = compound: CN(Cc1cnc2nc(N)nc(N)c2n1)c1ccc(C(=O)N[C@@H](CCC(=O)O)C(=O)O)cc1 [METHOTREXATE]; experiment: as above; conditions: exposure time: 5 days
How it was run: as §1

Row | Test System | surviving fraction ([1]; 0.5 nM) | surviving fraction ([1]; 1 nM) | surviving fraction ([1]; 5 nM) | surviving fraction ([1]; 10 nM) | surviving fraction ([1]; 50 nM) | surviving fraction ([1]; 100 nM) | surviving fraction ([1]; 500 nM) | surviving fraction ([1]; 1000 nM) | surviving fraction ([2]; 0.5 nM) | surviving fraction ([2]; 1 nM) | surviving fraction ([2]; 5 nM) | surviving fraction ([2]; 10 nM) | surviving fraction ([2]; 50 nM) | surviving fraction ([2]; 100 nM) | surviving fraction ([2]; 500 nM) | surviving fraction ([2]; 1000 nM)
1 | HCC1954 BREAST | 1.05 ± 0.059 | 1.14 ± 0.082 | 1.35 ± 0.075 | 1.35 ± 0.23 | 0.782 ± 0.23 | 0.708 ± 0.23 | 0.527 ± 0.066 | 0.493 ± 0.092 | 1.26 ± 0.04 | 1.16 ± 0.024 | 1.42 ± 0.14 | 1.3 ± 0.18 | 1.17 ± 0.11 | 0.997 ± 0.16 | 1.09 ± 0.13 | 0.849 ± 0.18
2 | HCT15 LARGE INTESTINE | 1.06 ± 0.12 | 1 ± 0.15 | 0.979 ± 0.17 | 0.977 ± 0.078 | 1.1 ± 0.038 | 1.11 ± 0.039 | 1.1 ± 0.044 |  | 1.08 ± 0.046 | 1.05 ± 0.13 | 1.04 ± 0.13 | 0.749 ± 0.18 | 0.138 ± 0.014 | 0.102 ± 0.017 | 0.137 ± 0.019 | 0.134 ± 0.015
3 | HELA CERVIX | 1.06 ± 0.057 | 1.08 ± 0.045 | 1.04 ± 0.089 | 1.05 ± 0.04 | 1.17 ± 0.054 | 1.18 ± 0.028 | 1.25 ± 0.035 | 1.15 ± 0.021 | 1.06 ± 0.044 | 1.027 ± 0.0067 | 1.03 ± 0.039 | 1.02 ± 0.018 | 0.712 ± 0.085 | 0.332 ± 0.018 | 0.282 ± 0.012 | 0.288 ± 0.016
4 | HMLE3 BREAST | 1.07 ± 0.021 |  | 1.1 ± 0.038 | 1.07 ± 0.026 |  | 1.17 ± 0.077 | 0.976 ± 0.15 | 0.916 ± 0.013 | 0.98 ± 0.057 | 1.03 ± 0.13 | 1.07 ± 0.046 | 0.985 ± 0.037 | 0.575 ± 0.051 | 0.639 ± 0.062 | 0.522 ± 0.026 | 0.513 ± 0.037
5 | HMT3552 BREAST | 1.03 ± 0.024 | 1.04 ± 0.036 | 0.994 ± 0.029 | 1.03 ± 0.02 | 1.02 ± 0.064 | 0.957 ± 0.034 | 0.85 ± 0.08 | 0.808 ± 0.053 | 1.07 ± 0.063 | 1 ± 0.036 | 1.04 ± 0.069 | 1.03 ± 0.051 | 0.604 ± 0.06 | 0.282 ± 0.02 | 0.182 ± 0.0061 | 0.171 ± 0.008
6 | HOS BONE | 1.038 ± 0.0011 |  | 1.03 ± 0.028 | 1.03 ± 0.022 |  | 1.05 ± 0.0058 | 1.03 ± 0.038 | 0.98 ± 0.046 | 1.02 ± 0.036 | 0.999 ± 0.024 | 0.252 ± 0.018 | 0.223 ± 0.0095 | 0.232 ± 0.013 | 0.226 ± 0.0083 | 0.218 ± 0.01 | 0.214 ± 0.018
7 | HOSMNG BONE |  | 1 ± 0.041 | 0.915 ± 0.044 | 0.947 ± 0.078 | 0.963 ± 0.1 |  | 1.1 ± 0.064 | 0.957 ± 0.044 | 0.844 ± 0.14 | 0.864 ± 0.049 | 0.84 ± 0.047 | 0.248 ± 0.019 | 0.212 ± 0.016 | 0.316 ± 0.011 | 0.341 ± 0.015 | 0.353 ± 0.0087
8 | HS57T BREAST | 1.03 ± 0.086 | 1.02 ± 0.071 | 1.06 ± 0.046 | 1.1 ± 0.052 |  | 1.04 ± 0.074 | 0.999 ± 0.046 | 0.971 ± 0.074 | 1 ± 0.11 | 1.03 ± 0.075 | 1.03 ± 0.032 | 0.985 ± 0.12 | 0.252 ± 0.025 | 0.226 ± 0.013 | 0.205 ± 0.018 | 0.214 ± 0.0081
9 | HS578T BREAST | 1.18 ± 0.052 | 1.4 ± 0.32 | 1.21 ± 0.22 | 1.23 ± 0.063 | 1.33 ± 0.21 | 1.32 ± 0.16 | 1.28 ± 0.23 | 1.18 ± 0.12 | 1.04 ± 0.19 | 1.17 ± 0.17 | 1.19 ± 0.2 | 1.15 ± 0.058 | 0.518 ± 0.069 | 0.438 ± 0.012 | 0.375 ± 0.011 | 0.418 ± 0.011
10 | HSSYII SYNOVIAL | 0.966 ± 0.066 | 1.03 ± 0.036 | 1.02 ± 0.058 | 1.06 ± 0.031 | 1.03 ± 0.062 | 1.01 ± 0.049 | 1.02 ± 0.063 | 1 ± 0.076 | 0.995 ± 0.049 | 0.996 ± 0.048 | 1 ± 0.051 | 0.969 ± 0.029 | 0.822 ± 0.035 | 0.834 ± 0.081 | 0.755 ± 0.045 | 0.78 ± 0.043
11 | HT1080 SOFT TISSUE |  | 1.05 ± 0.032 | 1.06 ± 0.027 | 1.05 ± 0.026 | 1.024 ± 0.004 | 1.02 ± 0.022 | 1.07 ± 0.066 | 1.03 ± 0.077 | 1.04 ± 0.021 | 1.06 ± 0.029 | 1.02 ± 0.04 | 0.493 ± 0.043 | 0.253 ± 0.023 | 0.257 ± 0.0082 | 0.259 ± 0.0081 | 0.265 ± 0.03
